Assay results as given in article PMC5947527 (Chemical Science, 2015).
“Also recorded” adds a separate entry of the source. Non-standard residues stand in square brackets, D forms with d. Residues, ends and D or L forms follow the SMILES beside them. *: point of attachment. NBD = O=[N+]([O-])c1ccc(*)c2nonc12; Nle = CCCC[C@H](N)C(=O)O; Ahx = NCCCCCC(=O)O

Tests used:
[1] = system: isolated human neutrophils; assay: Co-culture of bacteria and isolated human neutrophils, confocal specificity; format: cell-based
Excerpt: Neutrophil Isolation: Neutrophils for in vitro experiments were isolated from peripheral venous blood of healthy human volunteers (Ethical approval was obtained from the Lothian Research Ethics Committee). Blood was anticoagulated with sodium citrate (0.38% final concentration) and polymorphonuclear leukocytes were isolated via dextran sedimentation followed by centrifugation through discontinuous plasma-Percoll gradients, as previously described. S4 […]
(§1) Confocal Analysis and Fluorescence Quantification: 8-Well Lab-Tek II Confocal Chambers (VWR, PA, USA) were coated in fibronectin (for neutrophil experiments) or poly-d-lysine (for bacteria) at 37 °C for 20 minutes, then washed in PBS prior to bacterial innoculation. For co-culture assays, neutrophils were seeded on fibronectin coated wells at 1 x 10^5 neutrophils per well for 20 minutes and non-adherent neutrophils aspirated. Bacteria were added to each chamber to a final concentration of 0.5 OD595 nm with the desired final concentration of Smartprobe. A laser-scanning confocal imaging system (LSM510; Carl Zeiss, Jena, Germany), incorporating an upright Axioskop FS2 microscope (63× objective) was used for image acquisition and processing. Exposure to 488 nm light was limited to 5% of the maximum laser power in order to minimize toxicity. ‘Green’ fluorescence (for FAM and NBD) was excited with a dedicated 488 nm line and emitted light detected with meta detector (500-530 nM).
(§2) Syto nuclear and dyes were excited with a dedicated 543 nm line, and emitted light detected with meta detector (570-610 nM). Fields of view were chosen based on the counterstain and at least three fields of view were recorded for each condition. For affinity assays, following initial imaging, the fluid was aspirated and two gentle washes with PBS were performed. The chamber was re-imaged on confocal.
Analysis was with ImageJ (version 1.46r, National Institutes of Health, USA); the Syto channel was automatically thresholded (MaxEntropy, with a set threshold 0-47) and an ROI generated from this. The

[2] = system: methicillin-sensitive Staphylococcus aureus; assay: Confocal labelling of MSSA with quantified fluorescence; format: cell-based
Description: Fig. 6 Confocal Images of compounds UBI-3 to 9 with quantified fluorescence. Panels show methicillin-sensitive Staphylococcus aureus incubated with UBI-3 to 9 (all 10 μM) with quantification of bacterial fluorescence normalized to UBI-3 (bars represent mean (±SEM), n ≥ 3, ns = not significant, *** = p < 0.001, * = p < 0.05, scale bar = 10 μm).
Fig. 8 Confocal images and quantification of cyclic variants when compared to UBI-3. Panels show methicillin-sensitive Staphylococcus aureus incubated with cyclic UBI compounds (all 10 μM) with quantification of bacterial fluorescence normalized to UBI-3 (bars represent mean (±SEM), n ≥ 3, ns = not significant, ** = p < 0.01, scale bar = 10 μm).
Bacterial Culture and Labelling: Bacteria used were K. pneumoniae (ATCC BAA1706) ATCC, E. coli (ATCC 25922) ATCC, A. baumannii (J3433) Clinical Isolate, P. aeruginosa (J3284) Clinical Isolate, Methicillin Resistant S. aureus (MRSA) (ATCC25923) ATCC and Methicillin Sensitive S. aureus (MSSA) (ATCC 252) ATCC. All bacteria were grown on Lysogeny broth (LB) agar and from a single bacterial colony placed into 10ml of LB and incubated at 37°C for 16 hours in an orbital shaker.
Cultures were centrifuged at 4000rpm for 5 minutes and the pellet resuspended in 1ml phosphate buffered saline (PBS, Life Technologies). Following three further washes in PBS the cultures were reconstituted to 1 OD595 nm. Bacteria were counterstained with 5µM Syto 82 orange fluorescent nucleic acid stain (Invitrogen, CA, USA) in a shaking heat block at 37 °C for 20 minutes. For FCFM bacteria were stained with 1µM Calcein AM (Sigma, MO, USA) for 30 minutes at 37 °C. Counterstained bacteria were washed in PBS to remove excess dye. […]
as §1, §2
Analysis was with ImageJ (version 1.46r, National Institutes of Health, USA); the Syto channel was automatically thresholded (MaxEntropy, with a set threshold 0-47) and an ROI generated from this. The […]
(§3) mean fluorescence intensity on the probe channel within this ROI was quantified. Data presented represents the mean of three experiments, from each of which three separate fields of view were assessed. All experiments were performed at least three times unless otherwise stated and results expressed as mean ± SEM. Data was analysed by unpaired t-test and significance was determined as p<0.05 (GraphPad Prism version 5.01 for Windows, GraphPad Software, San Diego California USA).
Ex vivo Human Lung and FCFM Procedure: Human lung samples were obtained from patients undergoing surgical resection for lung carcinoma. All images were obtained on sections of normal lung […]

[3] = system: bacteria in ex vivo human lung tissue; assay: Fibered confocal fluorescence microscopy (FCFM) of labelled bacteria on ex vivo human lung tissue; settings: 10 μM, bacteria pre-labelled, 488 nm FCFM, n = 3
Description: Since NBD is also excited at 488 nm, the utility and detection of the Smartprobes with FCFM was next evaluated. […] These were then delivered onto ex vivo human lung tissue fragments.
Fig. 10 UBI-10 can be used to image bacteria in ex vivo human lung tissue by fibered confocal fluorescence microscopy (FCFM). FCFM imaging of bacteria in suspension (upper panels) or when co-incubated with ex vivo human lung tissue (lower panels). […] All compounds at 10 μM, n = 3. […]
as §3
Ex vivo Human Lung and FCFM Procedure: Human lung samples were obtained from patients undergoing surgical resection for lung carcinoma. All images were obtained on sections of normal lung away from the cancerous growth. Informed consent was obtained and the study was approved by the Regional Ethics Committee. Samples were taken fresh from the operating theatre, dissected into 4mm sections and placed in wells of 96 well plate. […]

[4] = 0.5 μM to 50 μM, methicillin sensitive S. aureus

Compound	labelling of neutrophils vs bacteria ([1]; bacteria with isolated human neutrophils, confocal)	concentration dependence of bacterial labelling [2, 4]	detection of labelled bacteria by FCFM on ex vivo human lung tissue [3]	labelling of neutrophils at 10 μM ([1]; co-culture of isolated human neutrophils and methicillin sensitive S. aureus, 10 μM)	labelling of neutrophils at 50 μM ([1]; co-culture of isolated human neutrophils and methicillin sensitive S. aureus, 50 μM)	relative fluorescence of labelled bacteria compared with the other compounds [2, 4]	bacterial labelling (fluorescence compared with UBI-3) ([2]; MSSA, 10 μM, fluorescence normalized to UBI-3, mean ± SEM, n ≥ 3)
CCCC[C@H](NC(=O)[C@H](CCCNC(=N)N)NC(=O)[C@H](CCCNC(=N)N)NC(=O)[C@H](CCCCN)NC(=O)[C@H](C)NC(=O)[C@H](CCCNC(=N)N)NC(=O)CNC(=O)[C@@H](NC(=O)CCCCCNc1ccc([N+](=O)[O-])c2nonc12)[C@@H](C)O)C(=O)N[C@@H](CCC(N)=O)C(=O)N[C@@H](Cc1ccc(O)cc1)C(=O)N[C@@H](CC(N)=O)C(=O)N[C@@H](CCCNC(=N)N)C(=O)N[C@@H](CCCNC(=N)N)C(N)=O [UBI-3] ({NBD-Ahx}-TGRAKRR[Nle]QYNRR-NH2)	labels bacteria but not isolated human neutrophils	concentration dependent manner; also recorded: concentration dependent increase in bacterial fluorescence	immediately lost their fluorescent signal; also recorded: can image bacteria in suspension but not in the presence of ex vivo human lung				
CCCC[C@@H]1NC(=O)[C@H](CCCNC(=N)N)NC(=O)[C@H](CCCNC(=N)N)NC(=O)[C@H](CCCCN)NC(=O)[C@H](C)NC(=O)[C@H](CCCNC(=N)N)NC(=O)CNC(=O)[C@H]([C@@H](C)O)NC(=O)[C@@H](NC(=O)CCCCCNc2ccc([N+](=O)[O-])c3nonc23)CCCCNC(=O)CNC(=O)[C@H](CCCNC(=N)N)NC(=O)[C@H](CCCNC(=N)N)NC(=O)[C@H](CC(N)=O)NC(=O)[C@H](Cc2ccc(O)cc2)NC(=O)[C@H](CCC(N)=O)NC1=O [UBI-10]		concentration dependent manner; also recorded: concentration dependent increase in bacterial fluorescence	readily identified above elastin autofluorescence; also recorded: can image bacteria by FCFM in the presence of ex vivo human lung	retained bacterial specificity over neutrophils; also recorded: no labelling of neutrophils	some neutrophil labelling was observed; also recorded: occasional neutrophil labelling was observed	higher than UBI-3 or UBI-5 labelled bacteria; also recorded: higher fluorescence (per molar equivalents) at all concentrations tested	significantly higher signal; also recorded: improved bacterial labelling
